Data reported in US6664273B2, “Piperidine based MCH antagonists for treatment of obesity and CNS disorders” (Schering Corporation, priority 2001, dated 2003).

Target: T1, MCH receptor (Homo sapiens, UniProt Q99705)
T1 construct: expressed in transfected cells; host or cells: CHO cells
Assay: MCH Receptor Binding Assay
Details: [125I]-MCH, SPA, membranes from CHO cells expressing the MCH receptor
Protocol: Membranes from CHO cells expressing the MCH receptor were prepared by lysing cells with 5 mM HEPES for 15 min at 4C. Cell lysates were centrifuged ([…], 15 min) and the pellet was re-suspended in 5 mM HEPES. For each 96-well plate (Microlite, Dynex Technologies), 1 mg of cell membranes were incubated with 10 mg of wheat germ agglutinin SPA beads (Amersham) for 5 min at 4 C in a volume of 10 ml of binding buffer (25 mM HEPES, 10 mM MGCl2, 10 mM NaCl, 5 mM MnCl2, 0.1% BSA). The membrane/bead mixture was centrifuged (1500×g, 3.5 min), the supernatant was aspirated, and the pellet was re-suspended in 10 ml binding buffer. The centrifugation, aspiration and re-suspension were then repeated. The membrane/bead mixture (100 μl) was then added to 96-well plates containing 50 μl of 500 pM [^125I]-MCH (NEN) and […] of the appropriate concentration of compound (4× the desired final concentration). Nonspecific binding was determined by including 1 μM MCH in the binding reaction. The binding reaction was incubated at room temperature for 2 h. Plates were then analyzed in a TOPCOUNT microplate scintillation counter (Packard). Data was analyzed and Ki values were determined using GraphPad Prism.

T1 sequence (Q99705 whole entry): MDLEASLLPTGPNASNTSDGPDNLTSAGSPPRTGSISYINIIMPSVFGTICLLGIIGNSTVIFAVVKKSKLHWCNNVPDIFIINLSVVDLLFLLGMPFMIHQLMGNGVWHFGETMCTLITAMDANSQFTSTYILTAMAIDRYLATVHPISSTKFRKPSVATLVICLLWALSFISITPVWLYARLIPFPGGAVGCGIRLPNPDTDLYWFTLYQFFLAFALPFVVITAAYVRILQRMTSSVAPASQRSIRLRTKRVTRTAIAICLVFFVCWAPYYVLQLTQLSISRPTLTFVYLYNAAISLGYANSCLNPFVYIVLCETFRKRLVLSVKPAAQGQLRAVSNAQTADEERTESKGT

SMILES | Ki
N#Cc1cccc(-c2ccc(C3(NCC(=O)Nc4cc(Cl)cc(Cl)c4)CCN(C4CCCC4)CC3)cc2)c1 | 3.2 nM
N#Cc1cccc(-c2ccc(C3(NCC(=O)Nc4ccc(F)c(C(F)(F)F)c4)CCN(C4CCCC4)CC3)cc2)c1 | 16 nM
CN(CC(=O)Nc1ccc(F)c(C(F)(F)F)c1)C1(c2ccc(-c3cccc(C#N)c3)cc2)CCN(C2CCCC2)CC1 | 18 nM
N#Cc1cccc(-c2ccc(C3(NCC(=O)Nc4ccc(F)c(Cl)c4)CCN(C4CCCC4)CC3)cc2)c1 | 2.6 nM
CN(CC(=O)Nc1ccc(F)c(Cl)c1)C1(c2ccc(-c3cccc(C#N)c3)cc2)CCN(C2CCCC2)CC1 | 4.2 nM
N#Cc1cccc(-c2ccc(C3(NCC(=O)Nc4ccc(Cl)c(C(F)(F)F)c4)CCN(C4CCCC4)CC3)cc2)c1 | 23 nM
CN(CC(=O)Nc1ccc(Cl)c(C(F)(F)F)c1)C1(c2ccc(-c3cccc(C#N)c3)cc2)CCN(C2CCCC2)CC1 | 16 nM
N#Cc1cccc(-c2ccc(C3(NCC(=O)Nc4cc(F)cc(F)c4)CCN(C4CCCC4)CC3)cc2)c1 | 2.5 nM
CN(CC(=O)Nc1cc(F)cc(F)c1)C1(c2ccc(-c3cccc(C#N)c3)cc2)CCN(C2CCCC2)CC1 | 6.2 nM
N#Cc1cccc(-c2ccc(C3(N(CC(=O)Nc4cc(F)cc(F)c4)CC4CC4)CCN(C4CCCC4)CC3)cc2)c1 | 69 nM
N#Cc1cccc(-c2ccc(C3(OCC(=O)Nc4cc(Cl)cc(Cl)c4)CCNCC3)cc2)c1 | 3.2 nM
CN1CCC(OCC(=O)Nc2cc(Cl)cc(Cl)c2)(c2ccc(-c3cccc(C#N)c3)cc2)CC1 | 4 nM
N#Cc1cccc(-c2ccc(C3(OCC(=O)Nc4cc(Cl)cc(Cl)c4)CCN(CC4CC4)CC3)cc2)c1 | 1.8 nM
N#Cc1cccc(-c2ccc(C3(OCC(=O)Nc4cc(Cl)cc(Cl)c4)CCN(C4CCCC4)CC3)cc2)c1 | 2.2 nM
CCN(CC(=O)Nc1ccc(F)c(Cl)c1)C1(c2ccc(-c3cccc(C#N)c3)cc2)CCN(C2CCCC2)CC1 | 10.6 nM
N#Cc1cccc(-c2ccc(C3(OCC(=O)Nc4ccc(F)c(Cl)c4)CCN(CC4CC4)CC3)cc2)c1 | 2 nM
N#Cc1cccc(-c2ccc(C3(OCC(=O)Nc4ccc(Cl)c(C(F)(F)F)c4)CCN(CC4CC4)CC3)cc2)c1 | 23 nM
O=C(CNC1(c2ccc(-c3cccc(OC(F)(F)F)c3)cc2)CCN(C2CCCC2)CC1)Nc1ccc(F)c(Cl)c1 | 76 nM
CC(C)(C)OC(=O)N1CCC(NCC(=O)Nc2ccc(F)c(Cl)c2)(c2ccc(-c3cccc(C#N)c3)cc2)CC1 | 56 nM
N#Cc1cccc(-c2ccc(C3(NCC(=O)Nc4ccc(F)c(Cl)c4)CCNCC3)cc2)c1 | 3 nM
CN(CC(=O)Nc1ccc(F)c(Cl)c1)C1(c2ccc(-c3cccc(C#N)c3)cc2)CCNCC1 | 4.7 nM
CC(=O)N1CCC(c2ccc(-c3cccc(C#N)c3)cc2)(N(C)CC(=O)Nc2ccc(F)c(Cl)c2)CC1 | 25 nM
CN(CC(=O)Nc1ccc(F)c(Cl)c1)C1(c2ccc(-c3cccc(C#N)c3)cc2)CCN(S(C)(=O)=O)CC1 | 70 nM
O=C(CNC1(c2ccc(-c3cccc(F)c3)cc2)CCN(C2CCCC2)CC1)Nc1ccc(F)c(Cl)c1 | 99 nM
O=C(CNC1(c2ccc(-c3cccc(Cl)c3)cc2)CCN(C2CCCC2)CC1)Nc1ccc(F)c(Cl)c1 | 63 nM

SMILES | Ki
N#Cc1cccc(-c2ccc(C3(OCC(=O)Nc4cc(Cl)cc(Cl)c4)CCN(C4CCCCC4)CC3)cc2)c1 | 19 nM
CC1CCC(N2CCC(OCC(=O)Nc3cc(Cl)cc(Cl)c3)(c3ccc(-c4cccc(C#N)c4)cc3)CC2)C1 (stereo not shown) | 11 nM
N#Cc1cccc(-c2ccc(C3(OCC(=O)Nc4cc(Cl)cc(Cl)c4)CCN(C4CCOCC4)CC3)cc2)c1 | 9 nM
N#Cc1cccc(-c2ccc(C3(OCC(=O)Nc4cc(Cl)cc(Cl)c4)CCN(C4CCSC4)CC3)cc2)c1 (stereo not shown) | 19 nM
CC1CCC(C)CC(N2CCC(OCC(=O)Nc3cc(Cl)cc(Cl)c3)(c3ccc(-c4cccc(C#N)c4)cc3)CC2)C1 (stereo not shown) | 20 nM
N#Cc1cccc(-c2ccc(C3(OCC(=O)Nc4cc(Cl)cc(Cl)c4)CCN(C4Cc5ccccc5C4)CC3)cc2)c1 | 62 nM
COC1CCCC(CN2CCC(OCC(=O)Nc3cc(Cl)cc(Cl)c3)(c3ccc(-c4cccc(C#N)c4)cc3)CC2)O1 (stereo not shown) | 20 nM
N#Cc1cccc(-c2ccc(C3(OCC(=O)Nc4cc(Cl)cc(Cl)c4)CCN(C4C5CCCC4CCC5)CC3)cc2)c1 (stereo not shown) | 48 nM
CC(C)C1CCC(N2CCC(OCC(=O)Nc3cc(Cl)cc(Cl)c3)(c3ccc(-c4cccc(C#N)c4)cc3)CC2)CC1 (stereo not shown) | 19 nM
CC(=O)C1CCC(N2CCC(OCC(=O)Nc3cc(Cl)cc(Cl)c3)(c3ccc(-c4cccc(C#N)c4)cc3)CC2)CC1 (stereo not shown) | 6 nM
N#Cc1cccc(-c2ccc(C3(OCC(=O)Nc4cc(Cl)cc(Cl)c4)CCN(C4CCC5CCCCC5C4)CC3)cc2)c1 (stereo not shown) | 36 nM
N#Cc1cccc(-c2ccc(C3(OCC(=O)Nc4cc(Cl)cc(Cl)c4)CCN(C4CCC(C(F)(F)F)CC4)CC3)cc2)c1 (stereo not shown) | 49 nM
N#Cc1cccc(-c2ccc(C3(OCC(=O)Nc4cc(Cl)cc(Cl)c4)CCN(C4CCCC(C(F)(F)F)C4)CC3)cc2)c1 (stereo not shown) | 86 nM
N#Cc1cccc(-c2ccc(C3(OCC(=O)Nc4cc(Cl)cc(Cl)c4)CCN(C4CCC(c5ccccc5)CC4)CC3)cc2)c1 (stereo not shown) | 95 nM
CC(C)CCN1CCC(OCC(=O)Nc2cc(Cl)cc(Cl)c2)(c2ccc(-c3cccc(C#N)c3)cc2)CC1 | 30 nM
CCC(C)CN1CCC(OCC(=O)Nc2cc(Cl)cc(Cl)c2)(c2ccc(-c3cccc(C#N)c3)cc2)CC1 (stereo not shown) | 21 nM
N#Cc1cccc(-c2ccc(C3(OCC(=O)Nc4cc(Cl)cc(Cl)c4)CCN(Cc4cccs4)CC3)cc2)c1 | 26 nM
N#Cc1cccc(-c2ccc(C3(OCC(=O)Nc4cc(Cl)cc(Cl)c4)CCN(Cc4ccsc4)CC3)cc2)c1 | 27 nM
N#Cc1cccc(-c2ccc(C3(OCC(=O)Nc4cc(Cl)cc(Cl)c4)CCN(Cc4cccc(O)c4)CC3)cc2)c1 | 19 nM
N#Cc1cccc(-c2ccc(C3(OCC(=O)Nc4cc(Cl)cc(Cl)c4)CCN(Cc4ccc(O)cc4)CC3)cc2)c1 | 20 nM
N#Cc1cccc(-c2ccc(C3(OCC(=O)Nc4cc(Cl)cc(Cl)c4)CCN(CCCc4ccccc4)CC3)cc2)c1 | 50 nM
CC(CN1CCC(OCC(=O)Nc2cc(Cl)cc(Cl)c2)(c2ccc(-c3cccc(C#N)c3)cc2)CC1)c1ccccc1 (stereo not shown) | 42 nM
COc1ccccc1CN1CCC(OCC(=O)Nc2cc(Cl)cc(Cl)c2)(c2ccc(-c3cccc(C#N)c3)cc2)CC1 | 15 nM
COc1ccc(CN2CCC(OCC(=O)Nc3cc(Cl)cc(Cl)c3)(c3ccc(-c4cccc(C#N)c4)cc3)CC2)cc1 | 39 nM
CC(CCN1CCC(OCC(=O)Nc2cc(Cl)cc(Cl)c2)(c2ccc(-c3cccc(C#N)c3)cc2)CC1)c1ccccc1 (stereo not shown) | 72 nM

SMILES | Ki
O=C(CNC1(c2ccc(-c3cc(Cl)ccc3Cl)cc2)CCN(C2CCCC2)CC1)Nc1ccc(F)c(Cl)c1 | 52 nM
CN(CC(=O)Nc1ccc(F)c(Cl)c1)C1(c2ccc(-c3cccc(C#N)c3)cc2)CCN(CCO)CC1 | 10 nM
N#Cc1cccc(-c2ccc(C3(OCC(=O)Nc4ccc(Cl)c(C(F)(F)F)c4)CCN(CCO)CC3)cc2)c1 | 48 nM
N#Cc1cccc(-c2ccc(C3(OCC(=O)Nc4ccc(Cl)c(C(F)(F)F)c4)CCN(C4CCCC4)CC3)cc2)c1 | 49 nM
N#Cc1cccc(-c2ccc(C3(OCC(=O)Nc4ccc(F)c(Cl)c4)CCN(CCO)CC3)cc2)c1 | 8.2 nM
O=Cc1cccc(-c2ccc(C3(NCC(=O)Nc4ccc(F)c(Cl)c4)CCN(C4CCCC4)CC3)cc2)c1 | 21 nM
O=C(CNC1(c2ccc(-c3cccc(-c4ncc[nH]4)c3)cc2)CCN(C2CCCC2)CC1)Nc1ccc(F)c(Cl)c1 | 8.3 nM
N#Cc1cccc(-c2ccc(C3(CCC(=O)Nc4cc(Cl)cc(Cl)c4)CCN(C4CCCC4)CC3)cc2)c1 | 35.5 nM
N#Cc1cccc(-c2ccc(C3(CCC(=O)Nc4ccc(F)c(Cl)c4)CCN(C4CCCC4)CC3)cc2)c1 | 26 nM
N#Cc1cccc(-c2ccc(C3(CCC(=O)Nc4cc(F)cc(F)c4)CCN(C4CCCC4)CC3)cc2)c1 | 36 nM
N#Cc1cccc(-c2ccc(C3(CCC(=O)Nc4ccc(F)c(F)c4)CCN(C4CCCC4)CC3)cc2)c1 | 15 nM
CC(C)(C)OC(=O)N1CCC(CCC(=O)Nc2ccc(F)c(F)c2)(c2ccc(-c3cccc(C#N)c3)cc2)CC1 | 51 nM
N#Cc1cccc(-c2ccc(C3(CCC(=O)Nc4ccc(F)c(F)c4)CCNCC3)cc2)c1 | 25 nM
N#Cc1cccc(-c2ccc(C3(CCC(=O)Nc4ccc(F)c(F)c4)CCN(CC4CC4)CC3)cc2)c1 | 8 nM
N#Cc1cccc(-c2ccc(C3(CCC(=O)Nc4cc(Cl)cc(Cl)c4)CCN(CC4CC4)CC3)cc2)c1 | 27 nM
N#Cc1cccc(-c2ccc(C3(CCC(=O)Nc4ccc(F)c(F)c4)CCN(C4CCC4)CC3)cc2)c1 | 19 nM
N#Cc1cccc(-c2ccc(C3(CCC(=O)Nc4ccc(F)c(Cl)c4)CCN(CC4CC4)CC3)cc2)c1 | 34 nM
N#Cc1cccc(-c2ccc(C3(CCC(=O)Nc4cc(F)cc(F)c4)CCN(CC4CC4)CC3)cc2)c1 | 31 nM
N#Cc1cccc(-c2ccc(C3(CCC(=O)Nc4cc(F)cc(C(F)(F)F)c4)CCN(CC4CC4)CC3)cc2)c1 | 49 nM
CC(=O)N1CCC(CCC(=O)Nc2ccc(F)c(F)c2)(c2ccc(-c3cccc(C#N)c3)cc2)CC1 | 61 nM
CCN(CC)C(=O)N1CCC(CCC(=O)Nc2ccc(F)c(F)c2)(c2ccc(-c3cccc(C#N)c3)cc2)CC1 | 45 nM
N#Cc1cccc(-c2ccc(C3(CCC(=O)Nc4ccc(Cl)c(C(F)(F)F)c4)CCN(CC4CC4)CC3)cc2)c1 | 80 nM
N#Cc1cccc(-c2ccc(C3(CCC(=O)Nc4cccc(OC(F)(F)F)c4)CCN(CC4CC4)CC3)cc2)c1 | 69 nM
